These results are taken from patent US12692261B2, “Substituted heterocyclic compounds and therapeutic uses thereof” (Bayer Aktiengesellschaft, priority 2020, dated 2026).

Where “and” joins values, the source holds several entries; their conditions need not be identical. Equal entries are not always repeated.

Assay [1] addresses T1, full-length human CSNK1A1 (Homo sapiens, UniProt P48729).
T1 construct: N-terminal Glutathion-S-Transferase (GST) and full-length human CSNK1A1; purchased Life Technologies PV4174; host or cells: baculovirus infected insect cells
In words: CSNK1A1 High ATP Assay (ADP-Glo, 1 mM ATP).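 Also: 30 min kinase reaction at 22 °C with 100 µM peptide substrate.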 The class given is biochemical. As to conditions: Table 3, read-out: CSNK1A1 high ATP assay IC50 [mol/l] (median). An outline of the steps: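 Kinase activity taken as ADP generated, quantified by ADP-Glo luminescence after 1 h ATP depletion and 1 h detection at 22 °C. Enzyme is GST–full-length human CSNK1A1 (insect cell-expressed), pre-bound to compound for 15 min, with phosphopeptide substrate and 1 mM ATP.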

The next assay addresses T2, full-length human CSNK1D (Homo sapiens, UniProt P48730).
T2 construct: N-terminal Glutathion-S-Transferase (GST) and full-length human CSNK1D; purchased Life Technologies PV3665; host or cells: baculovirus infected insect cells
In words: CSNK1D Assay (ADP-Glo, 1 μM ATP). The class given is biochemical. To be noted: Table 3, read-out: CSNK1D IC50 [mol/l] (median). An outline of the steps: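 ADP-Glo luminescence reports ADP generated by GST-fused full-length human CSNK1D (insect-cell expressed, about 0.5 ng/μL) acting on a biotinylated peptide at 1 μM ATP. Test compounds were pre-bound to enzyme 15 min at 22° C in 50 mM HEPES pH 7.5.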

T2 sequence (P48730 whole entry): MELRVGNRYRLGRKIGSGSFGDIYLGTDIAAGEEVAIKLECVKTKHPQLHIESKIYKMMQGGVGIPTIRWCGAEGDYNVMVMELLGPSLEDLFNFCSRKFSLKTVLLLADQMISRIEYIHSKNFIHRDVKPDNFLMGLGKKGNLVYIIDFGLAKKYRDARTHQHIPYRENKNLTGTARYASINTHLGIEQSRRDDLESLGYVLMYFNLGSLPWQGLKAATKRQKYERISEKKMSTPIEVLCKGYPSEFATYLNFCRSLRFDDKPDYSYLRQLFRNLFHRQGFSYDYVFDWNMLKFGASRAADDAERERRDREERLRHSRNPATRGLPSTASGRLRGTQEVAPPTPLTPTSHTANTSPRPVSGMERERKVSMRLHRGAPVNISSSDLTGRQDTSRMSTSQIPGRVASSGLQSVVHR
T1 sequence (P48729 whole entry): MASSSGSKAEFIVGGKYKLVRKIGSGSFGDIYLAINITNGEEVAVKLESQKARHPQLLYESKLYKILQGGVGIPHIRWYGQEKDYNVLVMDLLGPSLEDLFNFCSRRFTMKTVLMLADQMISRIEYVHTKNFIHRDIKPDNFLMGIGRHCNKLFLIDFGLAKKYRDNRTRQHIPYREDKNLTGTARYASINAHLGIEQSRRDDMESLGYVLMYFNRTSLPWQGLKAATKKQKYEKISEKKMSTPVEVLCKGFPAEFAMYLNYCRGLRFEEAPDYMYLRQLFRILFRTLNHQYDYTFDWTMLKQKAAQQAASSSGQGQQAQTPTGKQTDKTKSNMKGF

For `O=C(Nc1cc(-c2[nH]c3cccnc3c2-c2ccccn2)ccn1)C(CC(F)F)c1ccc(F)cc1` (single isomer, unassigned; (+)) [Example 11, (+)-4,4-difluoro-2-(4-fluorophenyl)-N-{4-[3-(pyridin-2-yl)-1H-pyrrolo[3,2-b]pyridin-2-yl]pyridin-2-yl}butanamide], the IC50 is 5.35 nM in assay [1] and 2.57 nM on full-length human CSNK1D.

Take `O=C(Nc1cc(-c2[nH]c3c(N4CCNCC4)ccnc3c2-c2ccccn2)ccn1)C(CC(F)F)c1ccc(F)cc1` (single isomer, unassigned) [Example 94, (2R or S)-4,4-difluoro-2-(4-fluorophenyl)-N-{4-[7-(piperazin-1-yl)-3-(pyridin-2-yl)-1H-pyrrolo[3,2-b]pyridin-2-yl]pyridin-2-yl}butanamide]: the IC50 in assay [1] turned out to be 2.31 nM; on full-length human CSNK1D, 3.67 nM.

Regarding `O=C(Nc1cc(-c2[nH]c3cc(F)cnc3c2-c2ccccc2)ccn1)C(CC(F)F)c1ccc(F)cc1` (racemic) [Example 19, 4,4-difluoro-2-(4-fluorophenyl)-N-[4-(6-fluoro-3-phenyl-1H-pyrrolo[3,2-b]pyridin-2-yl)pyridin-2-yl]butanamide], the IC50 came to 602 nM in assay [1] and 6.92 nM at full-length human CSNK1D.

`Cc1cc2[nH]c(-c3ccnc(NC(=O)C(CC(F)F)c4ccc(F)cc4)c3)c(-c3ccccn3)c2nc1F` (single isomer, unassigned) [Example 34, 4,4-difluoro-N-{4-[5-fluoro-6-methyl-3-(pyridin-2-yl)-1H-pyrrolo[3,2-b]pyridin-2-yl]pyridin-2-yl}-2-(4-fluorophenyl)butanamide]: the IC50 was found to be 3.79 nM in assay [1] and 6.86 nM at full-length human CSNK1D.

For the compound `O=C(Nc1cc(-c2[nH]c3cc(F)cnc3c2-c2ccccc2)ccn1)C(CC(F)F)c1ccc(F)cc1` (single isomer, unassigned; (-)) [Example 20, (−)-4,4-difluoro-2-(4-fluorophenyl)-N-[4-(6-fluoro-3-phenyl-1H-pyrrolo[3,2-b]pyridin-2-yl)pyridin-2-yl]butanamide], the IC50 in assay [1] amounted to 10100 nM; at full-length human CSNK1D, 47.8 nM.

For the compound `O=C(Nc1cc(-c2[nH]c3cccnc3c2-c2ccccn2)ccn1)C(CCO)c1ccc(F)cc1` (centres unmarked) [Example 104, 2-(4-fluorophenyl)-4-hydroxy-N-(4-(3-(pyridin-2-yl)-1H-pyrrolo[3,2-b]pyridin-2-yl)pyridin-2-yl)-butanamide], the IC50 in assay [1] worked out at 6.29 nM; on full-length human CSNK1D, 16.3 nM.

On to `COc1ncnc2c(-c3ccccn3)c(-c3ccnc(NC(=O)C(CC(F)F)c4ccc(F)cc4)c3)[nH]c12` (centres unmarked) [Example 113, 4,4-difluoro-2-(4-fluorophenyl)-N-{4-[4-methoxy-7-(pyridin-2-yl)-5H-pyrrolo[3,2-d]pyrimidin-6-yl]pyridin-2-yl}butanamide], for which the IC50 in assay [1] is 157 nM; on full-length human CSNK1D, 9.2 nM.

For the compound `O=C(Nc1cc(-c2[nH]c3c(OCC4CC4)ncnc3c2-c2ccccn2)ccn1)C(CC(F)F)c1ccc(F)cc1` (single isomer, unassigned) [Example 130, (2R or S)—N-{4-[4-(cyclopropylmethoxy)-7-(pyridin-2-yl)-5H-pyrrolo[3,2-d]pyrimidin-6-yl]pyridin-2-yl}-4,4-difluoro-2-(4-fluorophenyl)butanamide], the IC50 was 4960 nM and > 5710 nM in assay [1]; 55.8 nM on full-length human CSNK1D.

Regarding `O=C(Nc1cc(-c2[nH]c3c(CC4CC4)cc(F)nc3c2-c2ccccn2)ccn1)C(CC(F)F)c1ccc(F)cc1` (single isomer, unassigned) [Example 48, (2R or S)—N-{4-[7-(cyclopropylmethyl)-5-fluoro-3-(pyridin-2-yl)-1H-pyrrolo[3,2-b]pyridin-2-yl]pyridin-2-yl}-4,4-difluoro-2-(4-fluorophenyl)butanamide], the IC50 in assay [1] was 9.91 nM; at full-length human CSNK1D, 6.99 nM.

For `COc1cc(F)nc2c(-c3ccccn3)c(-c3ccnc(NC(=O)C(CC(F)F)c4ccc(F)cc4)c3)[nH]c12` (single isomer, unassigned; (-)) [Example 41, (−)-4,4-difluoro-N-{4-[5-fluoro-7-methoxy-3-(pyridin-2-yl)-1H-pyrrolo[3,2-b]pyridin-2-yl]pyridin-2-yl}-2-(4-fluorophenyl)butanamide], the figures for the IC50 (in assay [1]; at full-length human CSNK1D) were 3.37 nM and 4.13 nM, respectively.

As to `O=C(Nc1cc(-c2[nH]c3ccc(F)nc3c2-c2cc(F)ccn2)ccn1)C(CC(F)F)c1ccc(F)cc1` (racemic) [Example 95, (2RS)-4,4-difluoro-N-{4-[5-fluoro-3-(4-fluoropyridin-2-yl)-1H-pyrrolo[3,2-b]pyridin-2-yl]pyridin-2-yl}-2-(4-fluorophenyl)butanamide], the IC50 in assay [1] was found to be 5.62 nM; at full-length human CSNK1D, 10.5 nM.

On to `O=C(Nc1cc(-c2[nH]c3c(OCC4CC4)ncnc3c2-c2ccccn2)ccn1)C(CC(F)F)c1ccc(F)cc1` (racemic) [Example 128, (2RS)—N-{4-[4-(cyclopropylmethoxy)-7-(pyridin-2-yl)-5H-pyrrolo[3,2-d]pyrimidin-6-yl]pyridin-2-yl}-4,4-difluoro-2-(4-fluorophenyl)butanamide], for which the IC50 in assay [1] was found to be 47.4 nM; on full-length human CSNK1D it was 8.51 nM.

As to `O=C(Nc1cc(-c2[nH]c3ccc(F)nc3c2-c2ccc(F)cn2)ccn1)C(CC(F)F)c1ccc(F)cc1` (single isomer, unassigned; (-)) [Example 110, (−)-4,4-difluoro-N-{4-[5-fluoro-3-(5-fluoropyridin-2-yl)-1H-pyrrolo[3,2-b]pyridin-2-yl]pyridin-2-yl}-2-(4-fluorophenyl)butanamide], the values for the IC50 (in assay [1]; at full-length human CSNK1D) were 47.6 nM and 43 nM, respectively.

Consider `O=C(Nc1cc(-c2[nH]c3c(OCC(F)(F)F)ncnc3c2-c2ccccn2)ccn1)C(CC(F)F)c1ccc(F)cc1` (single isomer, unassigned) [Example 124, (2R or S)-4,4-difluoro-2-(4-fluorophenyl)-N-{4-[7-(pyridin-2-yl)-4-(2,2,2-trifluoroethoxy)-5H-pyrrolo[3,2-d]pyrimidin-6-yl]pyridin-2-yl}butanamide], for which the values for the IC50 (in assay [1]; on full-length human CSNK1D) were 2180 nM and 46.6 nM, respectively.

Regarding `Cc1cnc2c(-c3ccccn3)c(-c3ccnc(NC(=O)C(CC(F)F)c4ccc(F)cc4)c3)[nH]c2c1` (single isomer, unassigned) [Example 9, 4,4-difluoro-2-(4-fluorophenyl)-N-{4-[6-methyl-3-(pyridin-2-yl)-1H-pyrrolo[3,2-b]pyridin-2-yl]pyridin-2-yl}butanamide], the IC50 is 945 nM in assay [1] and 32.8 nM on full-length human CSNK1D.

For `COc1cnc2c(-c3ccccn3)c(-c3ccnc(NC(=O)C(CC(F)F)c4ccc(F)cc4)c3)[nH]c2n1` (centres unmarked) [Example 101, 4,4-difluoro-2-(4-fluorophenyl)-N-{4-[3-methoxy-7-(pyridin-2-yl)-5H-pyrrolo[2,3-b]pyrazin-6-yl]pyridin-2-yl}butanamide], the IC50 came to 4.82 nM in assay [1] and 9.17 nM at full-length human CSNK1D.

`O=C(Nc1cc(-c2[nH]c3c(C4CCCO4)cc(F)nc3c2-c2ccccn2)ccn1)C(CC(F)F)c1ccc(F)cc1` (single isomer, unassigned) [Example 116, (2R or S)-4,4-difluoro-N-(4-{5-fluoro-7-[(2R or S)-oxolan-2-yl]-3-(pyridin-2-yl)-1H-pyrrolo[3,2-b]pyridin-2-yl}pyridin-2-yl)-2-(4-fluorophenyl)butanamide]: the figures for the IC50 (in assay [1]; on full-length human CSNK1D) were 13.2 nM and 4.25 nM, respectively.

In the case of `O=C(Nc1cc(-c2[nH]c3c(OCC(F)F)cc(F)nc3c2-c2ccccn2)ccn1)C(CC(F)F)c1ccc(F)cc1` (single isomer, unassigned) [Example 29, (2R or S)—N-{4-[7-(2,2-difluoroethoxy)-5-fluoro-3-(pyridin-2-yl)-1H-pyrrolo[3,2-b]pyridin-2-yl]pyridin-2-yl}-4,4-difluoro-2-(4-fluorophenyl)butanamide], the IC50 in assay [1] turned out to be 3.31 nM; at full-length human CSNK1D, 2.32 nM.

`O=C(Nc1cc(-c2[nH]c3ccc(F)nc3c2-c2ccccn2)ccn1)[C@H](CC(F)F)c1ccc(F)cc1` (single isomer, unassigned) [Example 3]: the IC50 in assay [1] came to 849 nM; at full-length human CSNK1D it was 20.1 nM.

Take `O=C(Nc1cc(-c2[nH]c3c(Cl)ccnc3c2-c2ccccn2)ccn1)C(CC(F)F)c1ccc(F)cc1` (racemic) [Example 49, (2RS)—N-{4-[7-chloro-3-(pyridin-2-yl)-1H-pyrrolo[3,2-b]pyridin-2-yl]pyridin-2-yl}-4,4-difluoro-2-(4-fluorophenyl)butanamide]: the IC50 in assay [1] worked out at 3.64 nM; at full-length human CSNK1D, 7.69 nM.

In the case of `O=C(Nc1cc(-c2[nH]c3cccnc3c2-c2cccc(F)n2)ccn1)C(CC(F)F)c1ccc(F)cc1` (single isomer, unassigned; (-)) [Example 26, (−)-4,4-difluoro-2-(4-fluorophenyl)-N-{4-[3-(6-fluoropyridin-2-yl)-1H-pyrrolo[3,2-b]pyridin-2-yl]pyridin-2-yl}butanamide], the IC50 in assay [1] turned out to be 15.8 nM; at full-length human CSNK1D, 50.7 nM.

With `O=C(Nc1cc(-c2[nH]c3cccnc3c2-c2ccccn2)ccn1)C(CC(F)F)c1ccc(F)cc1` (racemic) [Example 10, 4,4-difluoro-2-(4-fluorophenyl)-N-{4-[3-(pyridin-2-yl)-1H-pyrrolo[3,2-b]pyridin-2-yl]pyridin-2-yl}butanamide], the IC50 is 9.88 nM in assay [1] and 4.99 nM at full-length human CSNK1D.
